Measurements as given in EP0677522A1, “8-METHOXYQUINOLONECARBOXYLIC ACID DERIVATIVE” (priority 1992, dated 1994).
In brackets after ≈: the same amount, converted by molar mass.

Tests used:
[1] = tested on: Mycoplasma pneumoniae ATCC 29343; test: Antibacterial effect against specific bacteria (MIC); assay type: cell-based; conditions: ATCC29343, same manner as Experimental Example 1
Method: (§1) The in vitro antibacterial activity (minimum inhibitory concentration, MIC, µg/ml) of the test compounds was determined according to Japan Society of Chemotherapy Standard [Chemotherapy, vol. 29, pp 76-79 (1981)].
(§2) In the same manner as in Experimental Example 1, the antibacterial effect against specific bacteria such as Chlamydia, Mycoplasma and acid-fast bacteria and anaerobic bacteria was determined.

[2] = tested on: Mycobacterium smegmatis IFO 3153; test: as above; assay type: cell-based; conditions: Mycolicibacterium smegmatis, IFO3153; same manner as Experimental Example 1
Method: as §1, §2

[3] = tested on: Bacteroides fragilis GAI 5560; test: as above; assay type: cell-based; conditions: GAI5560, same manner as Experimental Example 1
Method: as §1, §2

B. fragilis BFY-18 = test: as above; assay type: cell-based; conditions: Bacteroides fragilis, BFY18; same manner as Experimental Example 1
Method: as §1, §2

[4] = tested on: Mycobacterium smegmatis IFO 13167; test: as above; assay type: cell-based; conditions: Mycolicibacterium smegmatis, IFO13167; same manner as Experimental Example 1
Method: as §1, §2

E. coli KC-14 = test: Protection of mice from experimental infection; assay type: in vivo; conditions: oral administration one hour after inoculation, survival ratio at 7 days
Method: (§3) Experimental infection was caused by intraperitoneal inoculation of respective bacteria to male mice. One hour after the inoculation, a test compound was orally administered to the mice. The therapeutic effect of each test compound was evaluated by reference to the 50% effective dose (ED₅₀) which was based on the survival ratio at 7 days after the administration according to the probit method [Proc. Soc. Exp. Med., Vol. 57, p 261-264 (1944)]. The minimum inhibitory concentration (MIC) of the infectious bacteria used was also determined. […]

S. aureus MRSA Y-238 = test: Protection of mice from experimental infection; assay type: in vivo; conditions: oral administration one hour after inoculation, survival ratio at 7 days
Method: as §3

S. aureus Smith = test: Protection of mice from experimental infection; assay type: in vivo; conditions: male mice; intraperitoneal inoculation 2.8×10⁶ cells/mouse (123×LD₅₀); oral administration one hour after inoculation; survival ratio at 7 days, probit method
Method: as §3

## CC1COc2c(N3CCN(C)CC3)c(F)cc3c(=O)c(C(=O)O)cn1c23 (stereo not shown) [Comp. Ex. 2, 9-fluoro-2,3-dihydro-3-methyl-10-(4-methyl-1-piperazinyl)-7-oxo-7H-pyrido [1. 2. 3-de) [1.4] benzoxazine-6-carboxylic acid, reference compound]
[1]
  MIC: 1.56 µg/mL (≈ 4.32 µM)
[2]
  MIC: 0.39 µg/mL (≈ 1.08 µM)
[3]
  MIC: 1.56 µg/mL (≈ 4.32 µM)
B. fragilis BFY-18
  MIC: 1.56 µg/mL (≈ 4.32 µM)
[4]
  MIC: 0.39 µg/mL (≈ 1.08 µM)
E. coli KC-14; Table 3-1: male mice, intraperitoneal inoculation 5.0×10⁶ cells/mouse (744×LD₅₀)
  ED₅₀ (mg/mouse) (95% confidence limit): 0.012(0.009-0.018) mg/mouse
E. coli KC-14; Table 3-2: male mice, intraperitoneal inoculation (744×LD₅₀)
  ED₅₀ (mg/mouse) (95% confidence limit): 0.012(0.009-0.018) mg/mouse
S. aureus MRSA Y-238; Table 3-1: male mice, intraperitoneal inoculation 7.5×10⁶ cells/mouse (185×LD₅₀)
  ED₅₀ (mg/mouse) (95% confidence limit): > 16 mg/mouse
S. aureus MRSA Y-238; Table 3-2: male mice, intraperitoneal inoculation 7.5×10⁵ cells/mouse (185×LD₅₀)
  ED₅₀ (mg/mouse) (95% confidence limit): > 16 mg/mouse
S. aureus Smith
  ED₅₀ (mg/mouse) (95% confidence limit): 0.208(0.137-0.344) mg/mouse
